# Test results reported in BindingDB's records for doi:10.1073/pnas.95.18.10836 (Merck Research Laboratories, 1998).
# What was measured:
# [1] = biological target: Somatostatin receptor type 3 (Homo sapiens, UniProt P32745)
# [2] = biological target: Somatostatin receptor type 5 (Homo sapiens, UniProt P35346)
# [3] = biological target: Somatostatin receptor type 2 (Homo sapiens, UniProt P30874)
# [4] = biological target: Somatostatin receptor type 4 (Homo sapiens, UniProt P31391)
# [5] = biological target: Somatostatin receptor type 1 (Homo sapiens, UniProt P30872)
# Sequence of Somatostatin receptor type 1 (P30872 whole entry): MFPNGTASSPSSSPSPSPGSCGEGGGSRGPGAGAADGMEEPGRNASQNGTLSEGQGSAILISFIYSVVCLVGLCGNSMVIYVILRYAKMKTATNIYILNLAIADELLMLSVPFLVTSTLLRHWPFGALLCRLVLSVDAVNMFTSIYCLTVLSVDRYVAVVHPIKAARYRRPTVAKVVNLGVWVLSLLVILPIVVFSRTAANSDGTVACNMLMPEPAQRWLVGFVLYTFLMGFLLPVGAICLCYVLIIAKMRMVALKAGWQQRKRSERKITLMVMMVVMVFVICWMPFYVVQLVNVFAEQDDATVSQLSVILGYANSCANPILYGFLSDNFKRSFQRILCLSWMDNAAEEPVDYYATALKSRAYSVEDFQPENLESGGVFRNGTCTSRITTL
# Sequence of Somatostatin receptor type 3 (P32745 whole entry): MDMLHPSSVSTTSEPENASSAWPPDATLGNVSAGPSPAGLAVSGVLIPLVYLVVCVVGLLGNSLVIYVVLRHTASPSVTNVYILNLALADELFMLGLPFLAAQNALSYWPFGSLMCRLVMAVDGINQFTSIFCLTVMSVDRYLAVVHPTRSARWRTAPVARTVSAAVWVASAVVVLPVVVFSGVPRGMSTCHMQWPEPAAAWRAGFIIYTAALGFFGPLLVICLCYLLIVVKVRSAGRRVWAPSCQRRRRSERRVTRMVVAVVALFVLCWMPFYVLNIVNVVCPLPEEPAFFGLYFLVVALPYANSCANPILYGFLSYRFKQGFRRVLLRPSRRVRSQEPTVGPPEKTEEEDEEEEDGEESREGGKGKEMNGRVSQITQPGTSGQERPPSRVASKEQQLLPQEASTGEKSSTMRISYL
# Sequence of Somatostatin receptor type 5 (P35346 whole entry): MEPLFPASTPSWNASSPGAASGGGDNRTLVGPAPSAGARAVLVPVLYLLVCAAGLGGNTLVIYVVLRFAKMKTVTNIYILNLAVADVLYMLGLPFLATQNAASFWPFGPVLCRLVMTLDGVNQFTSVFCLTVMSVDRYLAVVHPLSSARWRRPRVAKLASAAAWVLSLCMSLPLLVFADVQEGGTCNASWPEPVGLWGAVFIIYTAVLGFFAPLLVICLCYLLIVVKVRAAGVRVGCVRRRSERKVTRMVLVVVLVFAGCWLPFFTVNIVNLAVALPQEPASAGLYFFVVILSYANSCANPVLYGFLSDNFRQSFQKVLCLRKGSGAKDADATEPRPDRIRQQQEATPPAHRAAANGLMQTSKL
# Sequence of Somatostatin receptor type 2 (P30874 whole entry): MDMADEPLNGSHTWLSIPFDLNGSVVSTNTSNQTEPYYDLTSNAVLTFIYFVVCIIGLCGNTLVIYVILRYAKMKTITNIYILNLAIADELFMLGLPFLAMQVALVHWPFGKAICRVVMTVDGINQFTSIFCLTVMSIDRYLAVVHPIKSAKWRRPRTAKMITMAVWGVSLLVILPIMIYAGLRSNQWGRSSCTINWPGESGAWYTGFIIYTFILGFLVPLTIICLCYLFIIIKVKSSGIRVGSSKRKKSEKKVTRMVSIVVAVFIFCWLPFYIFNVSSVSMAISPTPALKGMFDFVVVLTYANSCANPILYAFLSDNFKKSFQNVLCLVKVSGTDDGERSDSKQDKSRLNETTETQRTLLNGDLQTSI
# Sequence of Somatostatin receptor type 4 (P31391 whole entry): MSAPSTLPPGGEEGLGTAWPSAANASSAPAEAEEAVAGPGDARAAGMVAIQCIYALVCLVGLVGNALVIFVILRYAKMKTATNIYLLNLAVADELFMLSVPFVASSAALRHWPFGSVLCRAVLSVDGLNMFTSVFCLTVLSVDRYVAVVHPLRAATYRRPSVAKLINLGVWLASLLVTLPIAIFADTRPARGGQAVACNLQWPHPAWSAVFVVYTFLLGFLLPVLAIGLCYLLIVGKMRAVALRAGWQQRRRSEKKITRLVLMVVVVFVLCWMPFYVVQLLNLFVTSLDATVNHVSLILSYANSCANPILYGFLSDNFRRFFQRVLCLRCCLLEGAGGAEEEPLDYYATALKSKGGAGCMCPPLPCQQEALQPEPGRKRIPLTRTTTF
Ki [1] [nM],Ki [2] [nM],Ki [3] [nM],Ki [4] [nM],Ki [5] [nM],Compound
31,163,0.01,81,,"C[C@@H](c1c[nH]c2ccccc12)[C@@H](NC(=O)N1CCC(n2c(=O)[nH]c3ccccc32)CC1)C(=O)NC(CCCCN)C(=O)OC(C)(C)C (stereo partly drawn) [2-[[(2R,3S)-2-[[4-[(2-Oxo-2,3-dihydro-1H-benzimidazole)-1-yl]piperidino]carbonylamino]-3-(1H-indole-3-yl)butyryl]amino]-6-aminohexanoic acid tert-butyl ester]"
3070,2010,0.49,> 10000,5660,"CC(O)[C@H]1NC(=O)[C@@H](Cc2ccccc2)NC(=O)[C@H]2CCCN2C(=O)[C@H](Cc2ccc(O)cc2)NC(=O)[C@@H](Cc2c[nH]c3ccccc23)NC(=O)[C@@H](CCCCN)NC1=O (stereo partly drawn) [(5S,8R,11R,14R,17R,19aR)-11-(4-Amino-butyl)-17-benzyl-5-(4-hydroxy-benzyl)-14-(1-hydroxy-ethyl)-8-(1H-indol-3-ylmethyl)-tetradecahydro-3a,6,9,12,15,18-hexaaza-cyclopentacyclooctadecene-4,7,10,13,16,19-hexaone]"
230,232,,,> 10000,CC(C)[C@@H]1NC(=O)[C@H](CCCCN)NC(=O)[C@@H](Cc2c[nH]c3ccccc23)NC(=O)[C@H](Cc2ccc(O)cc2)NC(=O)[C@H](C)N(C)C(=O)[C@H](Cc2ccccc2)NC1=O [CAS_3086456]
